In PMC10675340, “Preparation, Radiolabeling with ^68Ga/^177Lu and Preclinical Evaluation of Novel Angiotensin Peptide Analog: A New Class of Peptides for Breast Cancer Targeting” (Pharmaceuticals, 2023):
Where two headings read alike, the source gives them in different places. Where a SMILES comes first, the peptide text is derived from it. [ ]: non-standard residue; d: D form. The star is where a group is joined. DOTA = O=C(O)CN1CCN(CC(=O)O)CCN(CC(=O)*)CCN(CC(=O)O)CC1; βAla = NCCC(=O)O

Legend:
[1] = In vivo biodistribution in normal Balb/c mice; design: species or system mouse; settings: female, mouse, iv, total radioactivity, normal Balb/c mice, i.v. tail vein, mean ± SD, n = 4-6
Procedure: (§1) The in vivo biodistribution of ^68Ga-labeled AngII peptide analog was carried out in female Balb/c mice, at various time points, to observe the uptake in the normal tissues and organs and find the excretion route of the radiolabeled peptides. […] Low uptake and retention of the radiopeptide in the liver varying from 1.54 ± 0.28% ID/g at 45 min to 0.48 ± 0.17% ID/g at 2 h p.i. is probably related to the high hydrophilicity (log p = −0.55 ± 0.11) of the ^68Ga-labeled AngII peptide analog. […] The efficient clearance from the kidneys is possibly associated with the urinary excretion of the radiopeptide. […] The low amount of uptake in the bone (up to 0.37 ± 0.14% ID/g) (Table 2) indicates the minimal breakdown of the ^68Ga-labeled AngII peptide complex in vivo combined with the minor release of free ^68Ga. These findings are in agreement with the high in vitro metabolic stability observed in the human plasma for the radiolabeled AngII peptide. The accumulation in the extremely vascular organ lungs was also low (up to 1.11 ± 0.37% ID/g) signifying a low trapping by the lungs.
(§2) Approval from the Institutional Animal Care and Use Committee was obtained for the animal protocol used. Additionally, strict international regulations govern the safe and proper use of laboratory animals employed during animal experiments. In vivo, biodistribution was performed on healthy female mice according to the methods essentially described previously. In summary, Balb/c mice (n = 5 per time point, body mass 20–25 g) at 45 min and 2 h were administered with the HPLC-purified AngII peptide (~1 µg, 100 µL, 0.925–1.85 MBq; 25–50 µCi) via lateral tail vein injection. At the specified time points, the animals were sacrificed by cervical dislocation. A fraction of the blood was collected from cardiac puncture. Urine was also collected and measured with the bladder contents. Major organs, such as the lungs, pancreas, stomach, liver, heart, kidneys, and intestines were isolated, weighed, and measured for radioactivity. The uptake values of the radiolabeled peptide in different organs are expressed as the percent injected dose per gram (% ID/g) of tissue/organ. The radioactivity in the urine with bladder contents is shown as the percent of the injected dose per organ (% ID/organ). To calculate the injected dose, a standard (20-fold dilution of injected dose) was prepared and counted together with animal tissue samples.

Balb/c mice = experiment: In vivo biodistribution in normal Balb/c mice; design: species or system mouse; settings: normal Balb/c mice, 45 min and 2 h p.i.
Procedure: as §1, §2

[2] = test system: MDA-MB-231 tumor xenografts; experiment: In vivo tumor targeting and biodistribution in nude mice bearing MDA-MB-231 xenografts; design: species or system mouse
Procedure: (with 43% wash away from the tumors over 2 h). The amount of radioactivity found for the ^68Ga-labeled AngII peptide analog in the tumors was always more than the radioactivity detected in the blood and muscle. A general pattern of better tumor-to-blood and tumor-to-muscle uptake ratios was noticed over time for ^68Ga-labeled AngII peptide.
In vivo, tumor uptake was conducted as reported previously. In summary, ~5 million MDA-MB-231 cells in 200 µL sterile PBS were implanted subcutaneously into each nude mouse. Once tumor growth became sufficient (~50–500 mg), tumor uptake and organ biodistribution were carried out after injecting the radiolabeled AngII peptide. The percent of the injected dose per gram in the tumors was determined by using a custom-designed Quattro Pro X9 spreadsheet (Corel Corporation, Austin, TX, USA).

[3] = In vivo receptor-blocking study in nude mice bearing MDA-MB-231 xenografts; settings: mouse, total radioactivity, nude mice with MDA-MB-231 xenografts, 2 h p.i., co-injected ~100 µg unlabeled AngII peptide analog, mean ± SD
Procedure: (§3) To validate the selectivity of the AngII peptide analog for its intended target AT1 receptors, we performed a receptor-blocking assay by administering a blocking dose of ~100 μg of unlabeled AngII peptide premixed with the radiolabeled AngII peptide analog at 2 h p.i. […] Furthermore, a varying influence pattern of the pharmacological receptor blocking dose was detected mainly in the intestines, heart, and kidneys as the uptake in these organs was reduced to variable degrees depending on the degree of AT1 receptor expression by these organs and tissues (Table 2).
(§4) For the receptor-blocking study, an additional group of mice was injected with the radiolabeled AngII peptide premixed with unlabeled AngII peptide (~100 μg) to serve as a receptor-blocking agent. In vivo, biodistribution and blocking studies were performed at 2 h p.i. as stated before.

AT1 receptor = experiment: as above; settings: mouse, total radioactivity, 2 h p.i., co-injected ~100 µg unlabeled AngII peptide analog, mean ± SD
Procedure: as §3, §4

SMILES: CC[C@H](C)[C@H](NC(=O)[C@H](Cc1ccc(O)cc1)NC(=O)[C@@H](NC(=O)[C@H](CCCNC(=N)N)NC(=O)[C@H](CC(=O)O)NC(=O)CCNC(=O)[C@H](CCCCN)NC(=O)CN1CCN(CC(=O)O)CCN(CC(=O)O)CCN(CC(=O)O)CC1)C(C)C)C(=O)N[C@@H](Cc1c[nH]cn1)C(=O)N1CCC[C@H]1C(=O)N[C@@H](Cc1ccccc1)C(=O)N[C@@H](Cc1c[nH]c2ccccc12)C(=O)N[C@@H](CCCCN)C(=O)N[C@@H](Cc1ccc(O)cc1)C(N)=O [^68Ga-DOTA-AngII peptide, metal not drawn] ({DOTA}-K[βAla]DRVYIHPFWKY-NH2)
- tissue uptake at 0.75 h ([1]; blood, 45 min p.i., read-out: Blood uptake): 0.85 ± 0.24 %ID/g
- tissue uptake at 2 h ([1]; blood, 2 h p.i., read-out: Blood uptake): 0.61 ± 0.15 %ID/g
- tissue uptake at 0.75 h ([1]; heart, 45 min p.i., read-out: Heart uptake): 1.39 ± 0.51 %ID/g
- tissue uptake at 2 h ([1]; heart, 2 h p.i., read-out: Heart uptake): 0.99 ± 0.26 %ID/g
- tissue uptake at 0.75 h ([1]; intestines without contents, 45 min p.i., read-out: Intestines uptake (portion without contents)): 1.45 ± 0.39 %ID/g
- tissue uptake at 2 h ([1]; intestines without contents, 2 h p.i., read-out: Intestines uptake (portion without contents)): 1 ± 0.28 %ID/g
- tissue uptake at 0.75 h ([1]; kidneys, 45 min p.i., read-out: Kidneys uptake): 9.95 ± 3.39 %ID/g
- tissue uptake at 2 h ([1]; kidneys, 2 h p.i., read-out: Kidneys uptake): 3.78 ± 1.46 %ID/g
- tissue uptake at 0.75 h ([1]; liver, 45 min p.i., read-out: Liver uptake): 1.54 ± 0.28 %ID/g
- tissue uptake at 2 h ([1]; liver, 2 h p.i., read-out: Liver uptake): 0.48 ± 0.17 %ID/g
- tissue uptake at 0.75 h ([1]; lungs, 45 min p.i., read-out: Lungs uptake): 1.11 ± 0.37 %ID/g
- tissue uptake at 2 h ([1]; lungs, 2 h p.i., read-out: Lungs uptake): 0.6 ± 0.2 %ID/g
- tissue uptake at 2 h ([1]; muscle/bone, 2 h p.i., read-out: Muscle/bone uptake): 0.28 ± 0.1 %ID/g
- tissue uptake at 0.75 h ([1]; pancreas, 45 min p.i., read-out: Pancreas uptake): 0.5 ± 0.11 %ID/g
- tissue uptake at 2 h ([1]; pancreas, 2 h p.i., read-out: Pancreas uptake): 0.33 ± 0.06 %ID/g
- tissue uptake at 0.75 h ([1]; spleen, 45 min p.i., read-out: Spleen uptake): 0.51 ± 0.1 %ID/g
- tissue uptake at 2 h ([1]; spleen, 2 h p.i., read-out: Spleen uptake): 0.31 ± 0.09 %ID/g
- tissue uptake at 0.75 h ([1]; stomach, 45 min p.i., read-out: Stomach uptake): 1.06 ± 0.41 %ID/g
- tissue uptake at 2 h ([1]; stomach, 2 h p.i., read-out: Stomach uptake): 0.81 ± 0.23 %ID/g
- dose excreted at 0.75 h ([1]; urine with bladder contents, 45 min p.i., read-out: Urine + Bladder (urinary excretion)): 67 ± 8.9%
- dose excreted at 2 h ([1]; urine with bladder contents, 2 h p.i., read-out: Urine + Bladder (urinary excretion)): 80 ± 12.9%
- Radioactivity in the whole intestines (with contents) (Balb/c mice): up to 2.97 % ID/g
- Wash away from the tumors ([2]; MDA-MB-231 tumors in nude mice, over 2 h (45 min vs 2 h p.i.)): 43%
- Clearance through the hepatobiliary system (liver + intestines) ([2]; tumor-bearing nude mice): below 7 % ID
- tissue uptake at 2 h ([3]; blood, intravenous, read-out: Blood uptake, blocked): 0.85 ± 0.2 %ID/g
- tissue uptake at 2 h ([3]; liver, read-out: Liver uptake, blocked): 0.85 ± 0.24 %ID/g
- tissue uptake at 2 h ([3]; lungs, intravenous, read-out: Lungs uptake, blocked): 0.89 ± 0.35 %ID/g
- tissue uptake at 2 h ([3]; pancreas, read-out: Pancreas uptake, blocked): 0.54 ± 0.12 %ID/g
- tissue uptake at 2 h ([3]; spleen, intravenous, read-out: Spleen uptake, blocked): 0.35 ± 0.09 %ID/g
- tissue uptake at 2 h ([3]; stomach, read-out: Stomach uptake, blocked): 0.49 ± 0.18 %ID/g
- tissue uptake at 2 h (AT1 receptor; heart, intravenous, nude mice with MDA-MB-231 xenografts, read-out: Heart uptake, blocked): 0.23 ± 0.1 %ID/g
- tissue uptake at 2 h (AT1 receptor; intestines without contents, nude mice with MDA-MB-231 xenografts, read-out: Intestines uptake (portion without contents), blocked): 0.8 ± 0.2 %ID/g
- tissue uptake at 2 h (AT1 receptor; kidneys, intravenous, nude mice with MDA-MB-231 xenografts, read-out: Kidneys uptake, blocked): 2.01 ± 0.87 %ID/g
- tissue uptake at 2 h (AT1 receptor; muscle/bone, nude mice with MDA-MB-231 xenografts, read-out: Muscle/bone uptake, blocked): 0.24 ± 0.1 %ID/g
- tissue uptake at 2 h (AT1 receptor; tumor (MDA-MB-231 xenograft), MDA-MB-231 tumor in nude mice, read-out: Tumor uptake, blocked): 0.6 ± 0.27 %ID/g
- dose excreted at 2 h (AT1 receptor; urine with bladder contents, intravenous, nude mice with MDA-MB-231 xenografts, read-out: Urine + Bladder (urinary excretion), blocked): 43.5 ± 7.9%
